Reference: US20240117431A1, “STEM-CELL BASED BIOMARKER DISCOVERY” (THE REGENTS OF THE UNIVERSITY OF CALIFORNIA, priority 2020, published 2024)
“Also recorded” adds a separate entry of the source.

How the values were obtained:
[1] = molecular target: T1, uracil monophosphate synthetase (UMPS) overexpressed in HEK cells (Homo sapiens, UniProt P11172); test: RNA incorporation with overexpression of UMPS, dot blot; assay type: cell-based; details: 1 mM, 24 hours, FIG. 12
T1 construct: expressed in transfected cells; host or cells: HEK cells
T1 sequence (P11172 1-480): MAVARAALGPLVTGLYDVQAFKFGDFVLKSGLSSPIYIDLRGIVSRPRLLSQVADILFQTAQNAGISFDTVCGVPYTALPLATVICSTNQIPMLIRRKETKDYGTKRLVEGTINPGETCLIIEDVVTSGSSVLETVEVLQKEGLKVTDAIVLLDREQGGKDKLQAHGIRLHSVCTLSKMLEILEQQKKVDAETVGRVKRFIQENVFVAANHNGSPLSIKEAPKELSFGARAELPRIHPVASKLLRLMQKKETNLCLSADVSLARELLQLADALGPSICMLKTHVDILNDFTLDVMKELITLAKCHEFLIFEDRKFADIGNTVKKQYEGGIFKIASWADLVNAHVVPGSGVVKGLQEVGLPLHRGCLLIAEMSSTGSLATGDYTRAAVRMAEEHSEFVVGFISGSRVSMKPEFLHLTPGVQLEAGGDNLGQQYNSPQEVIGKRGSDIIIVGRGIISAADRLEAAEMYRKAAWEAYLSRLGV
Protocol: Analogs were incubated for 24 hours at 1 mM concentration in HEK cells. RNA was extracted and biotinylated using MTSEA-Biotin, followed by dot-blot analysis. Strep-HRP=Streptavidin conjugated Horseradish peroxidase. MeBI=methylene blue staining serving as loading control.

[2] = molecular target: T2, wild-type (WT) TgUPRT in HEK cells (Toxoplasma gondii, UniProt Q26998); test: In-cell RNA incorporation by wild-type TgUPRT, streptavidin dot blot; assay type: cell-based
T2 construct: 6xHis; expressed in transfected cells; host or cells: HEK293 (HEK293T)
Protocol: Transfection, labeling of cellular RNA and RNA isolation: After 48h seeding, HEK293 cells were transfected with 2.5 μg of TgUPRT WT or mutant plasmids (pKN-CMV-TgUPRT-WT or -Mutt to Mut17) per 5 cm plate using JetPrime Transfection reagent (Polyplus Transfection, France). At 40h post-transfection, cells were incubated with a final concentration of 200 μM at <1% DMSO from 400 mM stock of uracil analogs (5EU, 5VU, 5AU) or 200 mM SAMU stock for 5 h. For time course study, HEK cells were treated with 200 μM uracil analogs for 0 h, 0.5, 1, 3, 5, 12 and 24 hours. For titrating uracil analog concentration experiments, HEK cells were treated with 0 (DMSO), 50, 100, 200, 500 μM or 1 mM uracil analog for 5h. Treated HEK cells were subjected to total RNA extraction using 1 mL Trizol Reagent (Invitrogen) following the manufacturer instructions.
Biotinylation via CuAAC and IEDDA: Cu-mediated Azide-Alkyne cycloaddition (CuAAC) click reactions were performed in 50 μL reaction at 22° C. on a shaker for 30 min with click reaction cocktail containing 15 μg of total RNA, 1 mM biotin alkyne or biotin azide, fresh 4.6 mM THPTA to a final concentration of 1 mM, and fresh 10.6 mM sodium ascorbate (NaAsc) at final concentration of 1.77 mM, and 12 mM CuSO4 at final concentration of 200 μM in biotinylation reaction buffer (10 mM TrisHCI, 1 mM EDTA, pH7.4). The biotinylated RNA was purified using RNA clean & Concentrator-5 kit (Zymo Research, Cat #R1013) according to the manufacturer instructions and eluted in 21 μL of nuclease free water.
Inverse electron demand [4+2] Diels-Alder cycloaddition (IEDDA) click reactions were performed in 50 μL at 37° C. or 22° C. (RT) for 3h on mixer at 500 rpm containing 10-15 μg of total RNA, 1 mM final concentration of biotin-benzyl tetrazine (Sigma Aldrich, Cat #793329-5MG) in nuclease free water. Clicked total RNA was purified using RNA clean & Concentrator-5 kit (Zymo Research, Cat #R1013) according to the manufacturer instructions, and RNA was eluted in 21 μL of nuclease free water.
HRP-streptavidin dot blot analysis: All gel reagents were from Bio-Rad. […]

T2 sequence (Q26998 whole entry): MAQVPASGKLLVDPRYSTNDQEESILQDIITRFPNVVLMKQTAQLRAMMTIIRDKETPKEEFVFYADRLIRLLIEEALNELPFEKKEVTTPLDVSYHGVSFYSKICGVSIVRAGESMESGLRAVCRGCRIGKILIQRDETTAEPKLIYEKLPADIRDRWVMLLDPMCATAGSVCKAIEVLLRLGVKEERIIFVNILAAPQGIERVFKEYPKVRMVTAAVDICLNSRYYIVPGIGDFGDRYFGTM

| SMILES | incorporation into cellular RNA with UMPS overexpression [1] | TgUPRT-dependent incorporation into cellular RNA ([2]; wild-type TgUPRT active site) | analog incorporation over time with wild-type TgUPRT ([2]; 200 μM, long periods of incubation, FIG. 9B) |
| --- | --- | --- | --- |
| C#Cc1c[nH]c(=O)[nH]c1=O [compound 1, 5-ethynylpyrimidine-2,4(1H,3H)-dione] | higher amount; also recorded: incorporation | capable of such transformations | – |
| C=Cc1c[nH]c(=O)[nH]c1=O [compound 2, 5-Vinylpyrimidine-2,4(1H,3H)-dione] | did not result in 2 incorporation into RNA and not | – | did not result in any observed incorporation |
